In the test the test system is male Wistar rats. As to the kind of experiment: conditioned avoidance response test (anxiolytic and tranquilizing action). Type of test: in vivo. The settings on record: suppression of conditioned avoidance response, oral administration 45 minutes before study; for Activity %: dose not given. The procedure:
In this test, male Wistar rats of 200 grams weight are used, trained to jump over a barrier in an avoidance and exit cage (shuttle box) (Letica, reference L1 910 and L1 2700) in the 30 seconds following their introduction into the cage.
The products with anxiolytic or tranquilizing activity suppress the conditioned avoidance response.
Training: first day: 11 tests, at intervals of 3 minutes. Electro-shock on the paws, at 30 seconds (5 mA, 0.1 s, 10 s).
Second and third days: 2 tests per day, solely with selected rats [sum of the points of the first day (excepting the first test)>14].
Day of test: groups formed of selected rats. Oral administration of the product or of the vehicle 45 minutes before starting the study.

[1] abbreviates: Rattus norvegicus, po, 0.75 h, read-out: ED50.

We go through 49 molecules from patent publication US5128343A, “Derivatives of pyrimidinyl-piperazinyl-alkyl azoles with anxiolytic and/or tranquilizing activity” (Laboratorios del Dr. Esteve, priority 1989, dated 1992).

Structures can show the parent of a compound that is named as a salt. Where two headings read alike, the source gives them in different places. A value given as a limit tells only on which side of the number the result lay.

For the molecule `Cc1cc(C)n(CCCCN2CCN(c3ncccn3)CC2)n1` [Example 2], the Activity % is recorded as 50%. In addition, the ED50 under setting [1] is 80 mg/kg.

`N#Cc1cnn(CCCCN2CCN(c3ncccn3)CC2)c1` [Example 12] had an Activity % of 100%.

As for `c1cnc(N2CCN(CCCCn3ccnc3)CC2)nc1` [Example 45], the Activity % was 35%. Besides, under setting [1], the ED50 worked out at 93 mg/kg.

`COc1ccc(-c2cnn(CCCCN3CCN(c4ncccn4)CC3)c2)cc1` [Example 32] gave an Activity % of 60%. Under setting [1], the ED50 amounted to 22.5 mg/kg.

Regarding `Cc1cncn1CCCCN1CCN(c2ncccn2)CC1` [Example 48], the Activity % came to 52%. In addition, the ED50 under setting [1] is 75 mg/kg.

As for `Brc1cnn(CCCCN2CCN(c3ncccn3)CC2)c1` [Example 11], the Activity % is given as 95%. The ED50 under setting [1] is 28.9 mg/kg.

`c1cnc(N2CCN(CCCCn3ncc4ccccc43)CC2)nc1` [Example 5] returned an Activity % of 45%. Also, under setting [1], the ED50 came out at 80 mg/kg.

The molecule `Nc1cnn(CCCCN2CCN(c3ncccn3)CC2)c1` [Example 15, 1H-pyrazole-4-amino-1-(4-(4-(2-pyrimidinyl)-1-piperazinyl)-butyl)] showed an Activity % of 79%. The ED50 under setting [1] stood at 27.7 mg/kg.

For `Cc1nn(CCCCN2CCN(c3ncccn3)CC2)c(C)c1Br` [Example 6], the Activity % was found to be 51%. In addition, the ED50 under setting [1] was determined as 80 mg/kg.

In the case of `CCCCS(=O)(=O)Nc1cnn(CCCCN2CCN(c3ncccn3)CC2)c1` [Example 39], the Activity % was found to be 57%. The ED50 under setting [1] was 73 mg/kg.

`CCS(=O)(=O)Nc1cnn(CCCCN2CCN(c3ncccn3)CC2)c1` [Example 41] registered an Activity % of 77%. The ED50 under setting [1] is 29.3 mg/kg.

Turning to `CS(=O)(=O)Nc1cnn(CCCCN2CCN(c3ncccn3)CC2)c1` [Example 16, 1H-pyrazole-4-methylsulfonamido-1-(4-(4-(2-pyrimidinyl)-1-piperazinyl)-butyl)], the Activity % is 64%. Under setting [1], the ED50 amounted to 40 mg/kg.

In turn, `Clc1cnn(CCCCN2CCN(c3ncccn3)CC2)c1` [Example 49] yielded an Activity % of 100%. Where the note is “45 min”, this molecule registered an ED50 of 14.5 mg/kg.

`c1ccc(-c2cnn(CCCCN3CCN(c4ncccn4)CC3)c2)cc1` [Example 35]: the Activity % was 100%. For the same molecule, under setting [1], the ED50 was found to be 27.4 mg/kg.

Take `O=S(=O)(Nc1cnn(CCCCN2CCN(c3ncccn3)CC2)c1)c1ccccc1` [Example 37]: the Activity % came to 46%. The ED50 under setting [1] came out at 85 mg/kg.

For `Cc1ccnn1CCCCN1CCN(c2ncccn2)CC1` [Example 22], the Activity % was determined as 47%.

The molecule `Cc1nn(CCCCN2CCN(c3ncccn3)CC2)c(C)c1S(=O)(=O)N(C)C` [Example 42] displayed an Activity % of 45%. The ED50 under setting [1] came to 82 mg/kg.

`c1ccc(-c2cc(-c3ccccc3)n(CCCCN3CCN(c4ncccn4)CC3)n2)cc1` [Example 36] registered an Activity % of 31%. Further, the ED50 under setting [1] amounted to 122 mg/kg.

In the case of `Cc1nn(CCCCN2CCN(c3ncccn3)CC2)c(C)c1[N+](=O)[O-]` [Example 3], the Activity % was found to be 61%. Further, under setting [1], the ED50 was 58.3 mg/kg.

`Cc1c(-c2ccccc2)cnn1CCCCN1CCN(c2ncccn2)CC1` [Example 28] displayed an Activity % of 75%. Moreover, the ED50 under setting [1] was 32.2 mg/kg.

Consider `c1cnc(N2CCN(CCCCn3cc(-n4cccc4)cn3)CC2)nc1` [Example 34], for which the Activity % is 100%. Besides, the ED50 under setting [1] stood at 5 mg/kg.

The molecule `Clc1cnn(CCCCN2CCN(c3ncccn3)CC2)c1` [Example 50, 1H-pyrazole-4-chloro-1-(4-(4-(2-pyrimidinyl)-1-piperazinyl)-butyldihydrochloride] showed an ED50 (dihydrochloride, 45 min) of 4.9 mg/kg. This molecule also yielded an Activity % (dihydrochloride) of 99%.

`Cc1cc(-c2ccccc2)n(CCCCN2CCN(c3ncccn3)CC2)n1` [Example 10] returned an Activity % of 24%.

In the case of `Cc1cnn(CCCCN2CCN(c3ncccn3)CC2)c1` [Example 4], the Activity % turned out to be 98%. Also, the ED50 under setting [1] was below 20 mg/kg.

`Clc1ncn(CCCCN2CCN(c3ncccn3)CC2)c1Cl` [Example 46] had an Activity % of 99%.

The molecule `Cc1nn(CCCCN2CCN(c3ncccn3)CC2)cc1-c1ccccc1` [Example 29] gave an Activity % of 78%. Moreover, the ED50 under setting [1] came to 31.9 mg/kg.

Take `Clc1cnn(CCCCN2CCN(c3ncccn3)CC2)c1` [Example 8, 1H-pyrazole-4-chloro-1-(4-(4-(2-pyrimidinyl)-1-piperazinyl)-butyl)]: the Activity % stood at 95%. For the same molecule, the ED50 (45 min) was found to be 17.9 mg/kg.

On to `Cc1nn(CCCCN2CCN(c3ncccn3)CC2)cc1Br` [Example 25], for which the Activity % was 59%. Also, the ED50 under setting [1] is 58.3 mg/kg.

Consider `O=C1CC2(CCCC2)CC(=O)N1CCCCN1CCN(c2ncccn2)CC1` [Buspirone, reference compound], for which the Activity % is reported as 99%. Moreover, the ED50 under setting [1] turned out to be 17.2 mg/kg.

`Clc1ccc(-c2cnn(CCCCN3CCN(c4ncccn4)CC3)c2)cc1` [Example 33] returned an Activity % of 90%. The ED50 under setting [1] was 15.7 mg/kg.

As for `CCOC(=O)c1cnn(CCCCN2CCN(c3ncccn3)CC2)c1` [Example 9], the Activity % is given as 14%.

For the molecule `O=[N+]([O-])c1cnn(CCCCN2CCN(c3ncccn3)CC2)c1` [Example 7, 1H-pyrazole-4-nitro-1-(4-(4-(2-pyrimidinyl)-1-piperazinyl)-butyl)], the Activity % is given as 98%. Also, the ED50 under setting [1] amounted to 6.2 mg/kg.

With `Brc1cnc(N2CCN(CCCCn3cc(Br)cn3)CC2)nc1` [Example 20], the Activity % was 59%. Moreover, the ED50 under setting [1] came out at 76.8 mg/kg.

`Fc1cn(CCCCN2CCN(c3ncccn3)CC2)nc1Cl` [Example 30] returned an Activity % of 85%. For the same molecule, the ED50 under setting [1] came out at 53.9 mg/kg.

`c1cnc(N2CCN(CCCCn3ncc4c3CCCC4)CC2)nc1` [Example 26]: the Activity % came to 97%. Further, the ED50 under setting [1] is 19.5 mg/kg.

`O=C1c2ccccc2S(=O)(=O)N1CCCCN1CCN(c2ncccn2)CC1` [Ipsapirone, reference compound]: the Activity % was 98%. Moreover, the ED50 under setting [1] worked out at 26.1 mg/kg.

Molecule `Cc1cn(CCCCN2CCN(c3ncccn3)CC2)cn1` [Example 47] showed an Activity % of 50%. For the same molecule, the ED50 under setting [1] turned out to be 80 mg/kg.

Regarding `Cc1c(Br)cnn1CCCCN1CCN(c2ncccn2)CC1` [Example 24, 1H-pyrazole-4-bromo-5-methyl-1-(4-(4-(2-pyrimidinyl)-1-piperazinyl)-butyl)], the Activity % was 53%. Also, under setting [1], the ED50 amounted to 60.6 mg/kg.

In turn, `c1cnc(N2CCN(CCCCn3cc4c(n3)CCCC4)CC2)nc1` [Example 27] had an Activity % of 98%. The ED50 under setting [1] amounted to 18.9 mg/kg.

As to `CCCS(=O)(=O)Nc1cnn(CCCCN2CCN(c3ncccn3)CC2)c1` [Example 40], the Activity % is 57%. Under setting [1], the ED50 came out at 73 mg/kg.

`CN(C)S(=O)(=O)c1cnn(CCCCN2CCN(c3ncccn3)CC2)c1` [Example 43]: the Activity % is listed as 63%. The ED50 under setting [1] came to 72 mg/kg.

Turning to `O=C(Nc1cnn(CCCCN2CCN(c3ncccn3)CC2)c1)c1ccccc1` [Example 17], the Activity % is on record as 62%. For the same molecule, under setting [1], the ED50 stood at 65.9 mg/kg.

In turn, `Fc1cnn(CCCCN2CCN(c3ncccn3)CC2)c1` [Example 13] displayed an Activity % of 85%.

`Cc1ccc(S(=O)(=O)Nc2cnn(CCCCN3CCN(c4ncccn4)CC3)c2)cc1` [Example 38] returned an Activity % of 37%. In addition, the ED50 under setting [1] is 102 mg/kg.

Molecule `CCC(C)Nc1cnn(CCCCN2CCN(c3ncccn3)CC2)c1` (stereo not shown) [Example 19] yielded an Activity % of 80%. Further, the ED50 under setting [1] worked out at 29.7 mg/kg.

As for `CC(=O)Nc1cnn(CCCCN2CCN(c3ncccn3)CC2)c1` [Example 18], the Activity % is 89%. Further, under setting [1], the ED50 came to 28.8 mg/kg.

As to `c1cnc(N2CCN(CCCCn3cccn3)CC2)nc1` [Example 1, 1H-pyrazole-1-(4-(4-(2-pyrimidinyl)-1-piperazinyl)-butyl)], the Activity % turned out to be 98%. Moreover, the ED50 under setting [1] is 26.2 mg/kg.

Regarding `O=S(=O)(O)c1cnn(CCCCN2CCN(c3ncccn3)CC2)c1` [Example 44], the Activity % was found to be 15%.

Consider `Clc1cnn(CCCCN2CCN(c3ncc(Br)cn3)CC2)c1` [Example 21], for which the Activity % is on record as 48%. The ED50 under setting [1] stood at 51.7 mg/kg.
